Assay results published in patent US9340577B2, “HLA binding motifs and peptides and their uses” (priority 1992, dated 2016).
No end group written: not given here.

Assays:
Assay in all cases: biochemical
[1] = target: DRB1*0301 (Homo sapiens, UniProt P01903+P01911, A100K/A102G/A103R/A169T/F55Y/I96L/K41T/L162R/M171V/P40S/Q125H/Q178H/Q39Y/R42S/S66N/T106N/T262R/W38E/Y61H); type: binding
[2] = target: DRB1*1201 (Homo sapiens, UniProt P01903+P01911, A100R/A169T/D57E/D86V/F55L/H45Y/K41T/L162R/M171V/P40S/Q125H/Q178H/Q39Y/Q99D/R42G/S66L/T262R/V114A/V67L/W38E/Y59H/Y61H/Y89S); type: binding
[3] = target: DR1 (DRB1*0101) (Homo sapiens, UniProt P01903+P01911, A100R/D57E/F55L/F60I/F76Y/I96L/L162R/M171V/P40L/Q125E/R42F/V115G/Y59C); type: binding
[4] = target: DR4w4 (DRB1*0401) (Homo sapiens, UniProt P01903+P01911, A100K/A169T/F76Y/I96L/K127E/L162R/M171V/N62H/P40V/Q125Y/R42H/S133A/S149N/S66Y/V115G/V209L/W38E); type: binding
[5] = target: DR7 (DRB1*0701) (Homo sapiens, UniProt P01903+P01911, A100R/A102G/A103Q/D57E/D86V/E43K/F76Y/K127E/L162R/M171V/P40G/Q125H/Q99D/R33Q/R42Y/R54Q/S133A/S66F/T210M/V115G/Y107V/Y59L/Y89S); type: binding
[6] = target: DRB1*0405 (Homo sapiens, UniProt P01903+P01911, A100R/A169T/D86S/F76Y/I96L/K127E/L162R/M171V/N62H/P40V/Q125Y/R42H/S133A/S149N/S66Y/V115G/V209L/W38E); type: binding
[7] = target: DRB1*0802 (Homo sapiens, UniProt P01903+P01911, A100R/A103L/A169T/F76Y/H45Y/I96F/K41T/L162R/M171V/P40S/Q125H/Q178H/Q39Y/Q99D/R218S/R42G/S66Y/V115G/W38E); type: binding
[8] = target: DRB1*0901 (Homo sapiens, UniProt P01903+P01911, A100R/A103E/D57H/D86V/F55Y/F60I/F76Y/I96F/K127E/L162R/M171V/P40D/Q125H/Q99R/R33Q/R42F/S133A/S66N/T210M/V115G/W38K/Y107V/Y59G/Y89S); type: binding
[9] = target: DRB1*1302 (Homo sapiens, UniProt P01903+P01911, A100E/A169T/K41T/L162R/M171V/P40S/Q125H/Q178H/Q39Y/Q99D/R42S/S66N/T262R/V115G/W38E/Y61H); type: binding
[10] = target: DRB1*1501 (Homo sapiens, UniProt P01903+P01911); type: binding
[11] = target: DRB4*0101 (Homo sapiens, UniProt P01903+P13762, G164S); type: binding
[12] = target: DRB1*1101 (Homo sapiens, UniProt P01903+P01911, A100R/A169T/A87E/I96F/K41T/L162R/M171V/P40S/Q125H/Q178H/Q39Y/Q99D/R42S/S66Y/T262R/V115G/W38E); details: Binding affinity DRB1 *1101
[13] = target: DRB5*0101 (Homo sapiens, UniProt P01903+Q30154); details: Binding affinity DRB5 *0101

Chain of DRB1*1101 (P01903 26-254 limits assumed, other chains not shown): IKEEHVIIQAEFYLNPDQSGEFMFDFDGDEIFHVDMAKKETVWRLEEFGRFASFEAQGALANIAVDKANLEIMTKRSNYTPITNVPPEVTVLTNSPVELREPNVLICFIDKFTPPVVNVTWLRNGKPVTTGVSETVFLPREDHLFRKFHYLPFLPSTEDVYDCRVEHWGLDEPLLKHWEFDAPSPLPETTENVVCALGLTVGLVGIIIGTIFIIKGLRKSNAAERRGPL
Chain of DRB1*0301 (P01903 26-254 limits assumed, other chains not shown): as above
Chain of DRB1*1302 (P01903 26-254 limits assumed, other chains not shown): as above

Compound	IC50 [1]	IC50 [2]	IC50 [3]	IC50 [4]	IC50 [5]	IC50 [6]	IC50 [7]	IC50 [8]	IC50 [9]	IC50 [10]	IC50 [11]	IC50 [12]	IC50 [13]
CC(C)C[C@H](NC(=O)[C@H](CO)NC(=O)[C@H](CC(C)C)NC(=O)[C@H](CO)NC(=O)[C@H](C)NC(=O)[C@H](C)NC(=O)[C@H](CCCNC(=N)N)NC(=O)[C@H](C)NC(=O)[C@H](CC(C)C)NC(=O)[C@H](CC(C)C)NC(=O)[C@H](CC(C)C)NC(=O)[C@@H]1CCCN1C(=O)[C@H](C)NC(=O)[C@H](C)N)C(=O)NCC(=O)O [Peptide 68.0019]	> 20000 nM	564 nM											
CC(C)C[C@H](NC(=O)[C@H](CO)NC(=O)[C@H](CC(C)C)NC(=O)[C@H](CO)NC(=O)[C@H](C)NC(=O)[C@H](C)NC(=O)[C@H](CCCNC(=N)N)NC(=O)[C@H](C)NC(=O)[C@H](CC(C)C)NC(=O)[C@H](CC(C)C)NC(=O)[C@H](CC(C)C)NC(=O)[C@@H]1CCCN1C(=O)[C@H](C)N)C(=O)NCC(=O)N[C@@H](Cc1ccccc1)C(=O)O [Peptide 68.0020]	> 20000 nM	225 nM											
CC[C@H](C)[C@H](NC(=O)[C@H](CO)NC(=O)[C@@H](NC(=O)CN)C(C)C)C(=O)N[C@@H](Cc1c[nH]c2ccccc12)C(=O)N[C@@H](CC(N)=O)C(=O)N1CCC[C@H]1C(=O)N[C@H](C(=O)N[C@@H](CC(C)C)C(=O)N[C@@H](CC(C)C)C(=O)N[C@@H](Cc1c[nH]c2ccccc12)C(=O)N[C@@H](CCC(N)=O)C(=O)N1CCC[C@H]1C(=O)N[C@H](C(=O)N1CCC[C@H]1C(=O)O)[C@@H](C)CC)[C@@H](C)CC [Peptide 68.0034]	> 20000 nM	3900 nM											
CC[C@H](C)[C@H](NC(=O)[C@H](CC(C)C)NC(=O)[C@H](CCCCN)NC(=O)[C@H](CCCCN)NC(=O)[C@@H](N)Cc1ccc(O)cc1)C(=O)N[C@@H](CCSC)C(=O)N[C@@H](Cc1ccc(O)cc1)C(=O)N[C@@H](CO)C(=O)N[C@@H](C)C(=O)N[C@@H](Cc1c[nH]cn1)C(=O)N[C@@H](CC(=O)O)C(=O)N[C@H](C(=O)N[C@H](C(=O)N[C@H](C(=O)N[C@@H](CO)C(=O)O)C(C)C)[C@@H](C)O)[C@@H](C)O [Peptide 68.0049]	> 20000 nM	928 nM											
CC[C@H](C)[C@H](NC(=O)[C@H](Cc1c[nH]c2ccccc12)NC(=O)[C@@H](NC(=O)[C@@H](NC(=O)[C@H](CO)NC(=O)[C@H](CC(C)C)NC(=O)[C@@H](N)[C@@H](C)O)C(C)C)[C@@H](C)O)C(=O)NCC(=O)N[C@@H](C)C(=O)N[C@@H](C)C(=O)N1CCC[C@H]1C(=O)N[C@@H](CC(C)C)C(=O)N[C@H](C(=O)N[C@@H](CC(C)C)C(=O)N[C@@H](CO)C(=O)O)[C@@H](C)CC [Peptide 68.0058]	> 20000 nM	55 nM											
CC[C@H](C)[C@H](NC(=O)[C@H](CS)NC(=O)[C@H](Cc1c[nH]cn1)NC(=O)[C@H](C)N)C(=O)N[C@@H](CCCNC(=N)N)C(=O)N[C@@H](CC(N)=O)C(=O)N[C@@H](CCCCN)C(=O)N[C@@H](CO)C(=O)N[C@H](C(=O)N[C@H](C(=O)N[C@@H](CC(C)C)C(=O)N[C@@H](CC(C)C)C(=O)NCC(=O)N[C@@H](CCCNC(=N)N)C(=O)N[C@@H](Cc1c[nH]cn1)C(=O)O)[C@@H](C)CC)C(C)C [Peptide 68.0066]	> 20000 nM	160 nM											
CC(C)C[C@H](NC(=O)[C@@H]1CCCN1C(=O)[C@H](Cc1c[nH]cn1)NC(=O)[C@@H]1CCCN1C(=O)[C@H](Cc1ccccc1)NC(=O)[C@H](CO)NC(=O)[C@H](Cc1c[nH]cn1)NC(=O)[C@H](CO)NC(=O)[C@@H](NC(=O)[C@H](CCC(N)=O)NC(=O)[C@H](Cc1ccccc1)NC(=O)[C@@H](NC(=O)[C@H](CCC(N)=O)NC(=O)CN)C(C)C)C(C)C)C(=O)N[C@@H](Cc1ccc(O)cc1)C(=O)O [Peptide 68.0069]	> 20000 nM	557 nM											
CC[C@H](C)[C@H](NC(=O)[C@H](Cc1c[nH]c2ccccc12)NC(=O)[C@H](CCCCN)NC(=O)[C@H](CCCNC(=N)N)NC(=O)[C@H](Cc1ccc(O)cc1)NC(=O)[C@H](Cc1c[nH]cn1)NC(=O)[C@@H](NC(=O)[C@@H](NC(=O)[C@H](CCCCN)NC(=O)[C@@H](NC(=O)[C@H](Cc1ccc(O)cc1)NC(=O)[C@H](CC(C)C)NC(=O)[C@H](CO)NC(=O)[C@@H]1CCCN1C(=O)[C@@H](N)CCCNC(=N)N)[C@@H](C)O)C(C)C)C(C)C)C(=O)O [Peptide 68.0082]	> 20000 nM	4160 nM											
CC[C@H](C)[C@H](NC(=O)CNC(=O)[C@H](CCC(=O)O)NC(=O)[C@H](Cc1c[nH]cn1)NC(=O)[C@@H](NC(=O)[C@H](Cc1ccc(O)cc1)NC(=O)[C@H](Cc1ccc(O)cc1)NC(=O)[C@H](CC(C)C)NC(=O)CN)C(C)C)C(=O)N[C@@H](CCCNC(=N)N)C(=O)N[C@H](C(=O)N[C@@H](Cc1ccc(O)cc1)C(=O)N[C@@H](Cc1ccccc1)C(=O)N[C@H](C(=O)N[C@@H](CCC(N)=O)C(=O)O)C(C)C)[C@@H](C)O [Peptide 90.0171]	689 nM		26 nM	668 nM	5580 nM	4660 nM	7380 nM	1000 nM	532 nM	1620 nM	1.9 nM	5360 nM	> 20000 nM
AKLMSNLLSIPETCM [Peptide 89.0066]	12800 nM		323 nM	99 nM	388 nM	34 nM	> 20000 nM	9140 nM	12 nM	3430 nM	421 nM	14600 nM	> 20000 nM
ETCMLIQPPKLRSSV [Peptide 89.0029]	> 20000 nM		60 nM	901 nM	354 nM	1560 nM	5080 nM	19500 nM	3050 nM	1700 nM	81 nM		
IIHLKGDKNSLKCLR [Peptide 90.0218]	42 nM			347 nM		12700 nM			1330 nM	137 nM	1440 nM		9920 nM
KHIRLLECVLMYKARE [Peptide 1601.44]	72 nM		120 nM	67 nM	6700 nM	236 nM	1770 nM	7480 nM	418 nM	74 nM	39 nM	613 nM	1630 nM
KIGMIDDVTPISWTY [Peptide 90.0087]	70 nM		3220 nM	20 nM	> 20000 nM	> 20000 nM	8370 nM	> 20000 nM	9.8 nM	4460 nM	3120 nM	> 20000 nM	> 20000 nM
LYGVSFMELIRPFQS [Peptide 89.0041]	> 20000 nM			5210 nM		1800 nM		64 nM	> 20000 nM	1550 nM	2.2 nM	39 nM	6040 nM
QHSFNDDIFDLSEMI [Peptide 90.0152]	534 nM		42 nM	37 nM		384 nM	7610 nM		17 nM	688 nM	2.1 nM	4380 nM	
